Experimental data reported in ChEMBL document CHEMBL3044586, “Design, synthesis, and anticonvulsant screening of some substituted piperazine and aniline derivatives of 5-phenyl-oxazolidin-2,4-diones and 5,5-diphenylimidazolidin-2,4 diones” (Med Chem Res, 2012).
Calls of active or inactive are those of the source. No cut-off for these calls is given here.

Experiments:
[1] = test system: Rattus norvegicus; experiment: Neurotoxicity against Rattus norvegicus Wistar (rat) assessed as inability to maintain equilibrium on rod at 30 mg/kg, po measured after 0.5 hr by rotarod test; assay type: toxicity, organism-based; design: dose 30 mg/kg, route oral; settings: in vivo
[2] = test system: Rattus norvegicus; experiment: Presynaptic agonist activity at 5HT1A receptor in Rattus norvegicus Wistar (rat) assessed as change in rectal temperature at 20 mg/kg, ip measured after 60 min (reference value: 0.0 +/- 0.1 degC); assay type: functional, organism-based; design: dose 20 mg/kg
[3] = test system: Rattus norvegicus; experiment: Neurotoxicity against Rattus norvegicus Wistar (rat) assessed as inability to maintain equilibrium on rod at 30 mg/kg, po measured after 4 hr by rotarod test; assay type: toxicity, organism-based; design: dose 30 mg/kg, route oral; settings: in vivo
[4] = test system: Rattus norvegicus; experiment: Anticonvulsant activity in Rattus norvegicus Wistar (rat) assessed as reduction in maximal electroshock-induced seizures at 30 mg/kg, po measured after 0.5 hr; assay type: functional, organism-based; design: dose 30 mg/kg
[5] = test system: Rattus norvegicus; experiment: Presynaptic agonist activity at 5HT1A receptor in Rattus norvegicus Wistar (rat) assessed as change in rectal temperature at 20 mg/kg, ip measured after 120 min (reference value: 0.0 +/- 0.1 degC); assay type: functional, organism-based; design: dose 20 mg/kg
[6] = test system: Mus musculus; experiment: Neurotoxicity against Mus musculus Swiss albino (mouse) assessed as inability to maintain equilibrium on rod at 30 to 300 mg/kg, ip measured after 4 hr by rotarod test; assay type: toxicity, organism-based; design: dose 30-300 mg/kg, route intraperitoneal; settings: in vivo
[7] = test system: Rattus norvegicus; experiment: Presynaptic agonist activity at 5HT1A receptor in Rattus norvegicus Wistar (rat) assessed as change in rectal temperature at 20 mg/kg, ip measured after 90 min (reference value: -0.2 +/- 0.1 degC); assay type: functional, organism-based; design: dose 20 mg/kg
[8] = test system: Rattus norvegicus; experiment: Presynaptic agonist activity at 5HT1A receptor in Rattus norvegicus Wistar (rat) assessed as change in rectal temperature at 10 mg/kg, ip measured after 60 min (reference value: 0.0 +/- 0.1 degC); assay type: functional, organism-based; design: dose 10 mg/kg
[9] = test system: Rattus norvegicus; experiment: Presynaptic agonist activity at 5HT1A receptor in Rattus norvegicus Wistar (rat) assessed as change in rectal temperature at 10 mg/kg, ip measured after 30 min (reference value: -0.1 +/- 0.1 degC); assay type: functional, organism-based; design: dose 10 mg/kg
[10] = test system: Rattus norvegicus; experiment: Presynaptic agonist activity at 5HT1A receptor in Rattus norvegicus Wistar (rat) assessed as change in rectal temperature at 20 mg/kg, ip measured after 30 min (reference value: -0.1 +/- 0.1 degC); assay type: functional, organism-based; design: dose 20 mg/kg
[11] = test system: Rattus norvegicus; experiment: Anticonvulsant activity in Rattus norvegicus Wistar (rat) assessed as reduction in maximal electroshock-induced seizures at 30 mg/kg, po measured after 4 hr; assay type: functional, organism-based; design: dose 30 mg/kg
[12] = test system: Mus musculus; experiment: Anticonvulsant activity in Mus musculus Swiss albino (mouse) assessed as reduction in maximal electroshock-induced seizure at 100 mg/kg, ip measured after 4 hr; assay type: functional, organism-based; design: dose 100 mg/kg
[13] = test system: Mus musculus; experiment: Anticonvulsant activity in Mus musculus Swiss albino (mouse) assessed as reduction in maximal electroshock-induced seizure at 30 to 300 mg/kg, ip measured after 0.5 hr; assay type: functional, organism-based
[14] = test system: Rattus norvegicus; experiment: Presynaptic agonist activity at 5HT1A receptor in Rattus norvegicus Wistar (rat) assessed as change in rectal temperature at 10 mg/kg, ip measured after 120 min (reference value: 0.0 +/- 0.1 degC); assay type: functional, organism-based; design: dose 10 mg/kg
[15] = test system: Rattus norvegicus; experiment: Presynaptic agonist activity at 5HT1A receptor in Rattus norvegicus Wistar (rat) assessed as change in rectal temperature at 10 mg/kg, ip measured after 90 min (reference value: -0.2 +/- 0.1 degC); assay type: functional, organism-based; design: dose 10 mg/kg
[16] = test system: Rattus norvegicus; experiment: Postsynaptic antagonist activity at 5HT1A receptor in Rattus norvegicus Wistar (rat) assessed as inhibition of 8-OH-DPAT-induced lower lip retraction at 10 to 20 mg/kg, ip administered 45 min prior to 8-OH-DPAT-challenge measured after 15 min; assay type: functional, organism-based
[17] = test system: Mus musculus; experiment: Binding affinity to 5HT2A receptor in ip dosed Mus musculus Swiss albino (mouse) assessed as effect on +/-DOI-induced head twitching administered 60 min prior to +/-DOI-challenge measured for 20 min; assay type: functional, organism-based
[18] = test system: Mus musculus; experiment: Neurotoxicity against Mus musculus Swiss albino (mouse) assessed as inability to maintain equilibrium on rod at 30 to 300 mg/kg, ip measured after 0.5 hr by rotarod test; assay type: toxicity, organism-based; design: dose 30-300 mg/kg, route intraperitoneal; settings: in vivo
[19] = test system: Mus musculus; experiment: Antagonist activity at 5HT2A receptor in ip dosed Mus musculus Swiss albino (mouse) assessed as inhibition of +/-DOI-induced head twitching administered 60 min prior to +/-DOI-challenge measured for 20 min; assay type: functional; settings: read-out: ID50 (the source's name)
[20] = test system: Mus musculus; experiment: Anticonvulsant activity in Mus musculus Swiss albino (mouse) assessed as reduction in maximal electroshock-induced seizure at 100 mg/kg, ip measured after 0.5 hr; assay type: functional, organism-based; design: dose 100 mg/kg
[21] = test system: Rattus norvegicus; experiment: Postsynaptic agonist activity at 5HT1A receptor in Rattus norvegicus Wistar (rat) assessed as increase in lower lip retraction at 10 to 20 mg/kg, ip measured after 15 min; assay type: functional, organism-based
[22] = test system: Mus musculus; experiment: Anticonvulsant activity in Mus musculus Swiss albino (mouse) assessed as reduction in maximal electroshock-induced seizure at 30 mg/kg, ip measured after 4 hr; assay type: functional, organism-based; design: dose 30 mg/kg
[23] = test system: Mus musculus; experiment: Neurotoxicity against Mus musculus Swiss albino (mouse) assessed as inability to maintain equilibrium on rod at 100 mg/kg, ip measured after 0.5 hr by rotarod test; assay type: toxicity, organism-based; design: dose 100 mg/kg, route intraperitoneal; settings: in vivo
[24] = test system: Mus musculus; experiment: Neurotoxicity against Mus musculus Swiss albino (mouse) assessed as inability to maintain equilibrium on rod at 100 mg/kg, ip measured after 4 hr by rotarod test; assay type: toxicity, organism-based; design: dose 100 mg/kg, route intraperitoneal; settings: in vivo
[25] = test system: Mus musculus; experiment: Anticonvulsant activity in Mus musculus Swiss albino (mouse) assessed as reduction in maximal electroshock-induced seizure at 30 mg/kg, ip measured after 0.5 hr; assay type: functional, organism-based; design: dose 30 mg/kg

SMILES | Activity [17] | Activity [1] | deltaT [2] [°C] | Activity [3] | Activity [4] | deltaT [5] [°C] | Activity [6] | deltaT [7] [°C] | deltaT [8] [°C] | deltaT [9] [°C] | deltaT [10] [°C] | Activity [11] | Activity [12] | Activity [13] | deltaT [14] [°C] | deltaT [15] [°C] | inhibition [16] | Activity [18] | Activity [22] | other results
O=C(c1ccc(F)cc1)C1CCN(CCn2c(=O)[nH]c3ccccc3c2=O)CC1 [KETANSERIN] | – | – | – | – | – | – | – | – | – | – | – | – | – | – | – | – | – | – | – | ED50 [19]: 0.12 mg/kg
O=C1NC(=O)C(c2ccccc2)(c2ccccc2)N1 [PHENYTOIN] | – | Non-toxic | – | Non-toxic | Active | – | – | – | – | – | – | Active | – | – | – | – | – | – | Active | Activity [23]: Toxic; Activity [24]: Toxic; Activity [25]: Active

Continued, in another order:

Activity [17] | SMILES | Activity [1] | deltaT [2] [°C] | Activity [3] | Activity [4] | deltaT [5] [°C] | Activity [6] | deltaT [7] [°C] | deltaT [8] [°C] | deltaT [9] [°C] | deltaT [10] [°C] | Activity [11] | Activity [12] | Activity [13] | deltaT [14] [°C] | deltaT [15] [°C] | inhibition [16] | Activity [18] | Activity [22] | other results
inactive | O=C1OC(c2ccccc2)C(=O)N1CCN1CCN(c2ccc(F)cc2)CC1 (stereo not drawn) | Non-toxic | -1.4 | Non-toxic | inactive | -1.4 | Non-toxic | -1.4 | -0.4 | -0.6 | -1.5 | inactive | Active | inactive | -0.5 | -0.5 | Active | Non-toxic | – | –
inactive | O=C1NC(c2ccccc2)(c2ccccc2)C(=O)N1CCNc1ccc(F)cc1 | Non-toxic | -2.7 | Non-toxic | Active | -1.5 | Non-toxic | -2.9 | -0.7 | -0.5 | -2.5 | Active | – | – | -0.7 | -0.9 | – | Non-toxic | Active | Activity [20]: Active; Activity [21]: Active
inactive | COc1ccc(NCCN2C(=O)OC(c3ccccc3)C2=O)cc1 (stereo not drawn) | Non-toxic | -1.5 | Non-toxic | inactive | -1.3 | Non-toxic | -1.5 | -0.8 | -0.5 | -1.1 | inactive | Active | inactive | -0.7 | -0.8 | Active | Non-toxic | – | –
